# Measurements as given in paper PMC8318231, “Rate-of-Kill (RoK) assays to triage large compound sets for Chagas disease drug discovery: Application to GSK Chagas Box” (PLoS Neglected Tropical Diseases, 2021).
# Test system: T. cruzi intracellular amastigotes in H9c2 cells
# Experiment: Rate-of-Kill (RoK) high-content imaging assay, amastigotes per cell (AM/CELL) and curve descriptors
# Format: cell-based, Trypanosoma cruzi
# Parameters: key to ME_24h / ME_48h / ME_72h: % reduction in parasite burden (cidal response); t50pct_MCC50 / t50pct_Cmax: unit not given here
# Conditions: for ME_24h: 24h; for ME_48h: 48h; for ME_72h: 72h; for tlag_Cmax / t50pct_Cmax / t50%_Cmax: at Cmax; for ME_24h (%): maximum effect at 24 h; for ME_24h (%) / ME_48h (%) / ME_72h (%): RoK assay; for ME_48h (%): maximum effect at 48 h; for ME_72h (%): maximum effect at 72 h; for ME 24h (maximum effect at 24 hours, intracellular amastigotes): maximum percentage of parasite burden reduction reached by any concentration
# In short: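 Readouts at each time point are amastigotes per cell and host nuclei count (cytotoxicity), from DRAQ5 high-content imaging. Infection: trypomastigotes on H9c2 at MOI 8 for 18 h. Dosing was 5 μM single point or 11 points, 1/3 steps from 50 μM. Effect scaled between 4 h infected and uninfected controls.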
SMILES,ME_24h (figure 5),ME_48h (figure 5),ME_72h (figure 5),MCCE (RoK curve descriptor),tlag_Cmax,t50pct_Cmax (figure 5),tlag_Cmax (figure 5),"t50pct_MCC50 (at MCC50, figure 5)","tlag_MCC50 (at MCC50, figure 5)",MCCE (figure 5),ME_24h (%),ME_48h (%),ME_72h (%),"ME 24h (maximum effect at 24 hours, intracellular amastigotes)","AM/CELL NORM (Time 4, sheet figure 4 A)","AM/CELL NORM (Time 24, sheet figure 4 A)","AM/CELL NORM (Time 48, sheet figure 4 A)","AM/CELL NORM (Time 72, sheet figure 4 A)",MCC50 (RoK curve descriptor),t50%_MCC50 (at MCC50),other results
COc1ccc(NS(=O)(=O)c2cc(NC(=O)Cc3ccc(C)cc3)ccc2N2CCOCC2)cc1 [TCMDC-143313],-207.804,-855.253,-1487.77,0.2 µM,72.0 h,72,72,72,72,0.2058,-207.8%,-855.3%,-1487.8%,23.7828%,–,–,–,–,–,–,"AM/CELL NORM (Time 4, figure 4 A): -12.1404; AM/CELL NORM (Time 24, figure 4 A): -266.8; AM/CELL NORM (Time 48, figure 4 A): -1156.6; AM/CELL NORM (Time 72, figure 4 A): -1899.09; MCC50 (figure 5): 50 µM"
COc1ccc(C(C)(C)C)cc1S(=O)(=O)n1ccnc1 [TCMDC-143275],-36.0217,-75.3113,19.8776,0.2 µM,48.0 h,72,48,72,72,0.2058,-36.0%,-75.3%,19.9%,-36.0217%,7.308,-56.5644,-75.3113,-31.1405,–,–,MCC50 (figure 5): 50 µM
CS(=O)(=O)c1ccc(CC(=O)Nc2nc(-c3ccc(Cl)s3)cs2)cc1 [TCMDC-143224],-50.7576,-167.826,53.6478,1.9 µM,48.0 h,72,48,72,48,1.852,-50.8%,-167.8%,53.7%,-50.7576%,-3.952,-61.4068,-205.24,-9.589,16.7 µM,72.0 h,"tlag_MCC50 (at MCC50): 48.0 h; MCC50 (figure 5, in µM): 16.6667"
CCC(=O)Nc1ccc(C(=O)Nc2ccccc2-c2ccccc2)cc1 [TCMDC-143286],59.883,81.1358,89.3246,0.6 µM,4.0 h,24,4,48,4,0.6173,59.9%,81.1%,89.3%,59.883%,27.4861,59.883,81.1358,89.3246,1.9 µM,48.0 h,"t50%_Cmax: 24.0 h; tlag_MCC50 (at MCC50): 4.0 h; MCC50 (figure 5, in µM): 1.852"
FC(F)(F)c1cc(C2CCCN(Cc3c[nH]c4ccccc34)C2)nc2ncnn12.O=C(O)C(O)C(O)C(=O)O (stereo not shown) [TCMDC-143311],20.357,59.0796,83.5796,16.7 µM,4.0 h,48,4,48,4,16.6667,20.4%,59.1%,83.6%,20.357%,-4.224,20.357,59.0796,83.5796,50.0 µM,48.0 h,t50%_Cmax: 48.0 h; tlag_MCC50 (at MCC50): 4.0 h; MCC50 (figure 5): 50 µM
Cc1cccc(N2CCCN(Cc3c[nH]c4ccccc34)CC2)n1 [TCMDC-143185],34.1143,65.81,87.1854,0.6 µM,4.0 h,48,4,48,4,0.6173,34.1%,65.8%,87.2%,84.3328%,–,–,–,–,1.9 µM,48.0 h,"AM/CELL NORM (Time 4, figure 4 A): -11.6177; AM/CELL NORM (Time 24, figure 4 A): 35.9083; AM/CELL NORM (Time 48, figure 4 A): 66.1558; AM/CELL NORM (Time 72, figure 4 A): 81.0849; t50%_Cmax: 48.0 h; tlag_MCC50 (at MCC50): 4.0 h; MCC50 (figure 5, in µM): 1.852"
COc1ccc(C(=O)Nc2cc(C(F)(F)F)ccc2N2CCOCC2)c(OC)c1 [TCMDC-143310],64.6908,80.1309,94.1302,0.6 µM,4.0 h,24,4,72,4,0.6173,64.7%,80.1%,94.1%,64.6908%,-57.2428,64.6908,80.1309,94.1302,1.9 µM,72.0 h,"t50%_Cmax: 24.0 h; tlag_MCC50 (at MCC50): 4.0 h; MCC50 (figure 5, in µM): 1.852"
CS(=O)(=O)NC1CCC(Oc2cc3cnccc3cc2-c2ccsc2)CC1.O=C(O)C(F)(F)F (stereo not shown) [TCMDC-143302],1.036,27.0388,21.5908,0.6 µM,4.0 h,72,4,72,72,0.6173,1.0%,27.0%,21.6%,1.036%,-2.284,1.036,27.0388,-4.309,–,–,MCC50 (figure 5): 50 µM
CCCn1c(NC(=O)Cc2ccc(Cl)cc2)nc2ccccc21 [TCMDC-143279],-55.8269,-85.7556,-269.589,9.3 µM,38.0 h,72,38,60,48,9.259,-55.8%,-85.8%,-269.6%,3.26%,0.2091,-159.496,-347.093,-621.538,5.6 µM,48.0 h,"tlag_MCC50 (at MCC50): 24.0 h; MCC50 (figure 5, in µM): 27.7778"
